From ChEMBL document CHEMBL1127385, “Synthesis and diuretic activity of alkyl- and arylguanidine analogs of N,N'-dicyclohexyl-4-morpholinecarboxamidine in rats and dogs” (J Med Chem, 1994)

Tests used:
[1] = system: Rattus norvegicus; test: Total electrolytic excretion of potassium in urine of rats after peroral administration of 0 uM/Kg of drug; format: ADME, organism-based; conditions: in vivo, po
[2] = system: Rattus norvegicus; test: Total electrolytic excretion of potassium in urine of rats after peroral administration of 113 uM/Kg of drug; format: ADME, organism-based; conditions: in vivo, po
[3] = system: Rattus norvegicus; test: Total electrolytic excretion of potassium in urine of rats after peroral administration of 11.3 uM/Kg of drug; format: ADME, organism-based; conditions: in vivo, po
[4] = system: Rattus norvegicus; test: Tested for the diuretic activity by measuring the urinary volume after peroral administering 0 uM/Kg of drug in rats; format: ADME, organism-based, Urine; conditions: in vivo, po
[5] = system: Rattus norvegicus; test: Total electrolytic excretion of chlorine in urine of rats after peroral administration of 3.76 uM/Kg of drug; format: ADME, organism-based; conditions: in vivo, po
[6] = system: Rattus norvegicus; test: Total electrolytic excretion of sodium in urine of rats after peroral administration of 37.6 uM/Kg of drug; format: ADME, organism-based; conditions: in vivo, po
[7] = system: Rattus norvegicus; test: Tested for the diuretic activity by measuring the urinary volume after peroral administering 3.76 uM/Kg of drug in rats; format: ADME, organism-based, Urine; conditions: in vivo, po
[8] = system: Rattus norvegicus; test: Total electrolytic excretion of sodium in urine of rats after peroral administration of 1.13 uM/Kg of drug; format: ADME, organism-based; conditions: in vivo, po
[9] = system: Canis familiaris; test: Ratio of Total electrolytic excretion of sodium and potassium in urine of dogs after peroral administration of 113 uM/Kg of drug; format: ADME, organism-based, Canis lupus familiaris; conditions: dog, in vivo, po
[10] = system: Rattus norvegicus; test: Total electrolytic excretion of potassium in urine of rats after peroral administration of 3.76 uM/Kg of drug; format: ADME, organism-based; conditions: in vivo, po
[11] = system: Canis familiaris; test: Ratio of Total electrolytic excretion of sodium and potassium in urine of dogs after peroral administration of 37.6 uM/Kg of drug; format: ADME, organism-based, Canis lupus familiaris; conditions: dog, in vivo, po
[12] = system: Rattus norvegicus; test: Total electrolytic excretion of sodium in urine of rats after peroral administration of 113 uM/Kg of drug; format: ADME, organism-based; conditions: in vivo, po
[13] = system: Rattus norvegicus; test: Tested for the diuretic activity by measuring the urinary volume after peroral administering 11.3 uM/Kg of drug in rats; format: ADME, organism-based, Urine; conditions: in vivo, po
[14] = system: Rattus norvegicus; test: Total electrolytic excretion of chlorine in urine of rats after peroral administration of 0 uM/Kg of drug; format: ADME, organism-based; conditions: in vivo, po
[15] = system: Canis familiaris; test: Tested for the diuretic activity by measuring the urinary volume after peroral administering 3.76 uM/Kg of drug in dogs; format: ADME, organism-based, Canis lupus familiaris, Urine; conditions: dog, in vivo, po
[16] = system: Rattus norvegicus; test: Total electrolytic excretion of potassium in urine of rats after peroral administration of 1.13 uM/Kg of drug; format: ADME, organism-based; conditions: in vivo, po
[17] = system: Rattus norvegicus; test: Total electrolytic excretion of chlorine in urine of rats after peroral administration of 37.6 uM/Kg of drug; format: ADME, organism-based; conditions: in vivo, po
[18] = system: Rattus norvegicus; test: Total electrolytic excretion of sodium in urine of rats after peroral administration of 0 uM/Kg of drug; format: ADME, organism-based; conditions: in vivo, po
[19] = system: Canis familiaris; test: Total electrolytic excretion of potassium in urine of dogs after peroral administration of 3.76 uM/Kg of drug; format: ADME, organism-based, Canis lupus familiaris; conditions: dog, in vivo, po
[20] = system: Canis familiaris; test: Total electrolytic excretion of sodium in urine of dogs after peroral administration of 3.76 uM/Kg of drug; format: ADME, organism-based, Canis lupus familiaris; conditions: dog, in vivo, po
[21] = system: Rattus norvegicus; test: Total electrolytic excretion of sodium in urine of rats after peroral administration of 3.76 uM/Kg of drug; format: ADME, organism-based; conditions: in vivo, po
[22] = system: Canis familiaris; test: Total electrolytic excretion of chlorine in urine of dogs after peroral administration of 3.76 uM/Kg of drug; format: ADME, organism-based, Canis lupus familiaris; conditions: dog, in vivo, po
[23] = system: Canis familiaris; test: Ratio of Total electrolytic excretion of sodium and potassium in urine of dogs after peroral administration of 0 uM/Kg of drug; format: ADME, organism-based, Canis lupus familiaris; conditions: dog, in vivo, po
[24] = system: Rattus norvegicus; test: Total electrolytic excretion of chlorine in urine of rats after peroral administration of 11.3 uM/Kg of drug; format: ADME, organism-based; conditions: in vivo, po
[25] = system: Rattus norvegicus; test: Total electrolytic excretion of sodium in urine of rats after peroral administration of 11.3 uM/Kg of drug; format: ADME, organism-based; conditions: in vivo, po
[26] = system: Rattus norvegicus; test: Total electrolytic excretion of chlorine in urine of rats after peroral administration of 113 uM/Kg of drug; format: ADME, organism-based; conditions: in vivo, po
[27] = system: Canis familiaris; test: Ratio of Total electrolytic excretion of sodium and potassium in urine of dogs after peroral administration of 11.3 uM/Kg of drug; format: ADME, organism-based, Canis lupus familiaris; conditions: dog, in vivo, po
[28] = system: Rattus norvegicus; test: Total electrolytic excretion of chlorine in urine of rats after peroral administration of 1.13 uM/Kg of drug; format: ADME, organism-based; conditions: in vivo, po
[29] = system: Rattus norvegicus; test: Total electrolytic excretion of potassium in urine of rats after peroral administration of 37.6 uM/Kg of drug; format: ADME, organism-based; conditions: in vivo, po
[30] = system: Rattus norvegicus; test: Tested for the diuretic activity by measuring the urinary volume after peroral administering 37.6 uM/Kg of drug in rats; format: ADME, organism-based, Urine; conditions: in vivo, po
[31] = system: Rattus norvegicus; test: Tested for the diuretic activity by measuring the urinary volume after peroral administering 1.13 uM/Kg of drug in rats; format: ADME, organism-based, Urine; conditions: in vivo, po
[32] = system: Canis familiaris; test: Ratio of Total electrolytic excretion of sodium and potassium in urine of dogs after peroral administration of 1.13 uM/Kg of drug; format: ADME, organism-based, Canis lupus familiaris; conditions: dog, in vivo, po
[33] = system: Rattus norvegicus; test: Tested for the diuretic activity by measuring the urinary volume after peroral administering 113 uM/Kg of drug in rats; format: ADME, organism-based, Urine; conditions: in vivo, po
[34] = system: Rattus norvegicus; test: Tested for the diuretic activity by measuring the urinary volume after peroral administering 86.9 uM/Kg of drug in rats; format: ADME, organism-based, Urine; conditions: in vivo, po
[35] = system: Rattus norvegicus; test: Tested for the diuretic activity by measuring the urinary volume after peroral administering 28.9 uM/Kg of drug in rats; format: ADME, organism-based, Urine; conditions: in vivo, po
[36] = system: Rattus norvegicus; test: Ratio of Total electrolytic excretion of sodium and potassium in urine of rats after peroral administration of 28.9 uM/Kg of drug; format: ADME, organism-based; conditions: in vivo, po
[37] = system: Rattus norvegicus; test: Total electrolytic excretion of sodium in urine of rats after peroral administration of 28.9 uM/Kg of drug; format: ADME, organism-based; conditions: in vivo, po
[38] = system: Rattus norvegicus; test: Total electrolytic excretion of potassium in urine of rats after peroral administration of 28.9 uM/Kg of drug; format: ADME, organism-based; conditions: in vivo, po
[39] = system: Rattus norvegicus; test: Total electrolytic excretion of potassium in urine of rats after peroral administration of 86.9 uM/Kg of drug; format: ADME, organism-based; conditions: in vivo, po
[40] = system: Rattus norvegicus; test: Total electrolytic excretion of potassium in urine of rats after peroral administration of 289 uM/Kg of drug; format: ADME, organism-based; conditions: in vivo, po
[41] = system: Rattus norvegicus; test: Total electrolytic excretion of sodium in urine of rats after peroral administration of 86.9 uM/Kg of drug; format: ADME, organism-based; conditions: in vivo, po
[42] = system: Rattus norvegicus; test: Total electrolytic excretion of chlorine in urine of rats after peroral administration of 86.9 uM/Kg of drug; format: ADME, organism-based; conditions: in vivo, po
[43] = system: Rattus norvegicus; test: Ratio of Total electrolytic excretion of sodium and potassium in urine of rats after peroral administration of uM/Kg of drug; format: ADME, organism-based; conditions: in vivo, po
[44] = system: Rattus norvegicus; test: Tested for the diuretic activity by measuring the urinary volume after peroral administering 289 uM/Kg of drug in rats; format: ADME, organism-based, Urine; conditions: in vivo, po
[45] = system: Rattus norvegicus; test: Total electrolytic excretion of chlorine in urine of rats after peroral administration of 289 uM/Kg of drug; format: ADME, organism-based; conditions: in vivo, po
[46] = system: Rattus norvegicus; test: Ratio of Total electrolytic excretion of sodium and potassium in urine of rats after peroral administration of 86.9 uM/Kg of drug; format: ADME, organism-based; conditions: in vivo, po
[47] = system: Rattus norvegicus; test: Total electrolytic excretion of sodium in urine of rats after peroral administration of 289 uM/Kg of drug; format: ADME, organism-based; conditions: in vivo, po
[48] = system: Rattus norvegicus; test: Total electrolytic excretion of chlorine in urine of rats after peroral administration of 28.9 uM/Kg of drug; format: ADME, organism-based; conditions: in vivo, po

N=C(N)NC(=O)c1nc(Cl)c(N)nc1N [AMILORIDE]
Excretion K+ [1]: 0.36 m equiv | Excretion K+ [2]: 0.05 m equiv | Excretion K+ [3]: 0.07 m equiv | V [4]: 4.8 mL | Excretion Cl- [5]: 1.29 m equiv | Excretion Na+ [6]: 2.27 m equiv | V [7]: 9.1 mL | Excretion Na+ [8]: 1.33 m equiv | Ratio [9]: 38.8 [Na+]/[K+] | Excretion K+ [10]: 0.1 m equiv | Ratio [11]: 45.2 [Na+]/[K+] | Excretion Na+ [12]: 1.77 m equiv | V [13]: 12.6 mL | Excretion Cl- [14]: 0.78 m equiv | V [15]: 59 mL | Excretion K+ [16]: 0.17 m equiv | Excretion Cl- [17]: 1.86 m equiv | Excretion Na+ [18]: 0.73 m equiv | Excretion K+ [19]: 0.4 m equiv | Excretion Na+ [20]: 9.5 m equiv | Excretion Na+ [21]: 1.65 m equiv | Excretion Cl- [22]: 4.3 m equiv | Ratio [23]: 2 [Na+]/[K+] | Excretion Cl- [24]: 1.73 m equiv | Excretion Na+ [25]: 2.17 m equiv | Excretion Cl- [26]: 1.43 m equiv | Ratio [27]: 30.8 [Na+]/[K+] | Excretion Cl- [28]: 1.14 m equiv | Excretion K+ [29]: 0.05 m equiv | V [30]: 13.9 mL | V [31]: 7.2 mL | Ratio [32]: 7.8 [Na+]/[K+] | V [33]: 9.4 mL

C1CCC(/N=C(/NC2CCCCC2)N2CCSCC2)CC1
V [34]: 11.3 mL | V [35]: 9.1 mL | Ratio [36]: 3.7 | Excretion Na+ [37]: 1.32 m equiv | Excretion K+ [38]: 0.36 m equiv | Excretion K+ [39]: 0.32 m equiv | Excretion K+ [40]: 0.27 m equiv | Excretion Na+ [41]: 1.81 m equiv | Excretion Cl- [42]: 1.78 m equiv | Ratio [43]: 5.5 | V [44]: 9.2 mL | Excretion Cl- [45]: 1.51 m equiv | Ratio [46]: 5.7 | Excretion Na+ [47]: 1.59 m equiv | Excretion Cl- [48]: 1.49 m equiv
